Data from PubChem BioAssay (NCI).
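Growth conditions: 96-well plates. Treatment: test compound, 48 hours, 5 concentrations. Analysis: linear interpolation between bracketing concentrations; unreached endpoints set to highest concentration. TGI: concentration producing complete growth inhibition.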

Assays:
Assay in all cases: growth of human tumour cells (NCI), 48 h
786-0 renal = system: 786-0 renal
A498 renal = system: A498 renal
A549 NSCLC = system: A549 NSCLC
ACHN renal = system: ACHN renal
BT-549 breast = system: BT-549 breast
CAKI-1 renal = system: CAKI-1 renal
CCRF-CEM leukemia = system: CCRF-CEM leukemia
COLO 205 colon = system: COLO 205 colon
DU-145 prostate = system: DU-145 prostate
EKVX NSCLC = system: EKVX NSCLC
HCC-2998 colon = system: HCC-2998 colon
HCT-116 colon = system: HCT-116 colon
HCT-15 colon = system: HCT-15 colon
HL-60(TB) leukemia = system: HL-60(TB) leukemia
HOP-62 NSCLC = system: HOP-62 NSCLC
HOP-92 NSCLC = system: HOP-92 NSCLC
HS 578T breast = system: HS 578T breast
HT29 colon = system: HT29 colon
IGROV1 ovarian = system: IGROV1 ovarian
K-562 leukemia = system: K-562 leukemia
KM12 colon = system: KM12 colon
LOX IMVI melanoma = system: LOX IMVI melanoma
M14 melanoma = system: M14 melanoma
MALME-3M melanoma = system: MALME-3M melanoma
MCF7 breast = system: MCF7 breast
MDA-MB-231 breast = system: MDA-MB-231 breast
MDA-MB-435 = system: MDA-MB-435
MDA-N = system: MDA-N
MOLT-4 leukemia = system: MOLT-4 leukemia
NCI-H226 lung = system: NCI-H226 lung
NCI-H23 lung = system: NCI-H23 lung
NCI-H460 lung = system: NCI-H460 lung
NCI-H522 lung = system: NCI-H522 lung
NCI/ADR-RES ovarian = system: NCI/ADR-RES ovarian
OVCAR-4 ovarian = system: OVCAR-4 ovarian
OVCAR-5 ovarian = system: OVCAR-5 ovarian
OVCAR-8 ovarian = system: OVCAR-8 ovarian
PC-3 prostate = system: PC-3 prostate
RXF 393 renal = system: RXF 393 renal
SF-268 CNS = system: SF-268 CNS
SF-295 CNS = system: SF-295 CNS
SK-MEL-28 melanoma = system: SK-MEL-28 melanoma
SK-MEL-5 melanoma = system: SK-MEL-5 melanoma
SK-OV-3 ovarian = system: SK-OV-3 ovarian
SN12C renal = system: SN12C renal
SNB-19 CNS = system: SNB-19 CNS
SNB-75 CNS = system: SNB-75 CNS
SR leukemia = system: SR leukemia
SW-620 colon = system: SW-620 colon
T-47D breast = system: T-47D breast
TK-10 renal = system: TK-10 renal
U251 CNS = system: U251 CNS
UACC-257 melanoma = system: UACC-257 melanoma
UACC-62 melanoma = system: UACC-62 melanoma
UO-31 renal = system: UO-31 renal
OVCAR-3 ovarian = system: OVCAR-3 ovarian
RPMI-8226 leukemia = system: RPMI-8226 leukemia
SF-539 CNS = system: SF-539 CNS
SK-MEL-2 melanoma = system: SK-MEL-2 melanoma

SMILES: CC1(C)COP(=S)(c2ccccn2)O[C@@H]1c1ccccc1 (stereo not given in full)
- TGI (786-0 renal): > 100 µM
- TGI (A498 renal): > 100 µM
- TGI (A549 NSCLC): > 100 µM
- TGI (ACHN renal): > 100 µM
- TGI (BT-549 breast): > 100 µM
- TGI (CAKI-1 renal): > 100 µM
- TGI (CCRF-CEM leukemia): > 100 µM
- TGI (COLO 205 colon): > 100 µM
- TGI (DU-145 prostate): > 100 µM
- TGI (EKVX NSCLC): > 100 µM
- TGI (HCC-2998 colon): > 100 µM
- TGI (HCT-116 colon): > 100 µM
- TGI (HCT-15 colon): > 100 µM
- TGI (HL-60(TB) leukemia): > 100 µM
- TGI (HOP-62 NSCLC): > 100 µM
- TGI (HOP-92 NSCLC): > 100 µM
- TGI (HS 578T breast): > 100 µM
- TGI (HT29 colon): > 100 µM
- TGI (IGROV1 ovarian): > 100 µM
- TGI (K-562 leukemia): > 100 µM
- TGI (KM12 colon): > 100 µM
- TGI (LOX IMVI melanoma): > 100 µM
- TGI (M14 melanoma): > 100 µM
- TGI (MALME-3M melanoma): > 100 µM
- TGI (MCF7 breast): > 100 µM
- TGI (MDA-MB-231 breast): > 100 µM
- TGI (MDA-MB-435): > 100 µM
- TGI (MDA-N): > 100 µM
- TGI (MOLT-4 leukemia): > 100 µM
- TGI (NCI-H226 lung): > 100 µM
- TGI (NCI-H23 lung): > 100 µM
- TGI (NCI-H460 lung): > 100 µM
- TGI (NCI-H522 lung): > 100 µM
- TGI (NCI/ADR-RES ovarian): > 100 µM
- TGI (OVCAR-4 ovarian): > 100 µM
- TGI (OVCAR-5 ovarian): > 100 µM
- TGI (OVCAR-8 ovarian): > 100 µM
- TGI (PC-3 prostate): > 100 µM
- TGI (RXF 393 renal): > 100 µM
- TGI (SF-268 CNS): > 100 µM
- TGI (SF-295 CNS): > 100 µM
- TGI (SK-MEL-28 melanoma): > 100 µM
- TGI (SK-MEL-5 melanoma): 91.1 µM
- TGI (SK-OV-3 ovarian): > 100 µM
- TGI (SN12C renal): > 100 µM
- TGI (SNB-19 CNS): > 100 µM
- TGI (SNB-75 CNS): > 100 µM
- TGI (SR leukemia): > 100 µM
- TGI (SW-620 colon): > 100 µM
- TGI (T-47D breast): > 100 µM
- TGI (TK-10 renal): > 100 µM
- TGI (U251 CNS): > 100 µM
- TGI (UACC-257 melanoma): > 100 µM
- TGI (UACC-62 melanoma): > 100 µM
- TGI (UO-31 renal): > 100 µM

SMILES: COc1cc(OC)c2nc3occc3c(OC)c2c1
- TGI (786-0 renal): > 100 µM
- TGI (A498 renal): > 100 µM
- TGI (A549 NSCLC): > 100 µM
- TGI (ACHN renal): > 100 µM
- TGI (BT-549 breast): > 100 µM
- TGI (CAKI-1 renal): > 100 µM
- TGI (CCRF-CEM leukemia): > 100 µM
- TGI (COLO 205 colon): > 100 µM
- TGI (DU-145 prostate): > 100 µM
- TGI (EKVX NSCLC): > 100 µM
- TGI (HCC-2998 colon): > 100 µM
- TGI (HCT-116 colon): > 100 µM
- TGI (HCT-15 colon): > 100 µM
- TGI (HL-60(TB) leukemia): > 100 µM
- TGI (HOP-62 NSCLC): > 100 µM
- TGI (HOP-92 NSCLC): > 100 µM
- TGI (HS 578T breast): > 100 µM
- TGI (HT29 colon): > 100 µM
- TGI (IGROV1 ovarian): > 100 µM
- TGI (KM12 colon): > 100 µM
- TGI (LOX IMVI melanoma): > 100 µM
- TGI (M14 melanoma): > 100 µM
- TGI (MALME-3M melanoma): > 100 µM
- TGI (MCF7 breast): > 100 µM
- TGI (MDA-MB-231 breast): > 100 µM
- TGI (MDA-MB-435): > 100 µM
- TGI (MDA-N): > 100 µM
- TGI (MOLT-4 leukemia): > 100 µM
- TGI (NCI-H226 lung): > 100 µM
- TGI (NCI-H23 lung): > 100 µM
- TGI (NCI-H460 lung): > 100 µM
- TGI (NCI-H522 lung): > 100 µM
- TGI (NCI/ADR-RES ovarian): > 100 µM
- TGI (OVCAR-3 ovarian): > 100 µM
- TGI (OVCAR-4 ovarian): > 100 µM
- TGI (OVCAR-5 ovarian): > 100 µM
- TGI (OVCAR-8 ovarian): > 100 µM
- TGI (PC-3 prostate): > 100 µM
- TGI (RPMI-8226 leukemia): > 100 µM
- TGI (RXF 393 renal): > 100 µM
- TGI (SF-268 CNS): > 100 µM
- TGI (SF-295 CNS): > 100 µM
- TGI (SF-539 CNS): > 100 µM
- TGI (SK-MEL-2 melanoma): > 100 µM
- TGI (SK-MEL-28 melanoma): > 100 µM
- TGI (SK-MEL-5 melanoma): > 100 µM
- TGI (SK-OV-3 ovarian): > 100 µM
- TGI (SN12C renal): > 100 µM
- TGI (SNB-19 CNS): > 100 µM
- TGI (SNB-75 CNS): > 100 µM
- TGI (SR leukemia): > 100 µM
- TGI (SW-620 colon): > 100 µM
- TGI (T-47D breast): > 100 µM
- TGI (TK-10 renal): > 100 µM
- TGI (U251 CNS): > 100 µM
- TGI (UACC-257 melanoma): > 100 µM
- TGI (UACC-62 melanoma): > 100 µM
- TGI (UO-31 renal): > 100 µM

SMILES: CC1(C)CC(=O)c2c(nc3c4c([nH]c(-c5ccc([N+](=O)[O-])cc5)c24)CC(C)(C)C3)C1
- TGI (786-0 renal): > 100 µM
- TGI (A498 renal): 44.6 µM
- TGI (A549 NSCLC): > 100 µM
- TGI (ACHN renal): > 100 µM
- TGI (BT-549 breast): > 100 µM
- TGI (CAKI-1 renal): > 100 µM
- TGI (CCRF-CEM leukemia): > 100 µM
- TGI (COLO 205 colon): 59 µM
- TGI (DU-145 prostate): > 100 µM
- TGI (EKVX NSCLC): > 100 µM
- TGI (HCC-2998 colon): > 100 µM
- TGI (HCT-116 colon): > 100 µM
- TGI (HCT-15 colon): > 100 µM
- TGI (HL-60(TB) leukemia): > 100 µM
- TGI (HOP-62 NSCLC): > 100 µM
- TGI (HOP-92 NSCLC): > 100 µM
- TGI (HS 578T breast): > 100 µM
- TGI (HT29 colon): > 100 µM
- TGI (K-562 leukemia): > 100 µM
- TGI (KM12 colon): > 100 µM
- TGI (LOX IMVI melanoma): > 100 µM
- TGI (M14 melanoma): > 100 µM
- TGI (MALME-3M melanoma): > 100 µM
- TGI (MCF7 breast): > 100 µM
- TGI (MDA-MB-231 breast): > 100 µM
- TGI (MDA-MB-435): > 100 µM
- TGI (MDA-N): > 100 µM
- TGI (MOLT-4 leukemia): > 100 µM
- TGI (NCI-H226 lung): > 100 µM
- TGI (NCI-H23 lung): > 100 µM
- TGI (NCI-H460 lung): > 100 µM
- TGI (NCI-H522 lung): > 100 µM
- TGI (NCI/ADR-RES ovarian): > 100 µM
- TGI (OVCAR-3 ovarian): > 100 µM
- TGI (OVCAR-4 ovarian): > 100 µM
- TGI (OVCAR-5 ovarian): > 100 µM
- TGI (OVCAR-8 ovarian): > 100 µM
- TGI (PC-3 prostate): > 100 µM
- TGI (RXF 393 renal): > 100 µM
- TGI (SF-268 CNS): > 100 µM
- TGI (SF-295 CNS): > 100 µM
- TGI (SF-539 CNS): > 100 µM
- TGI (SK-MEL-2 melanoma): > 100 µM
- TGI (SK-MEL-28 melanoma): > 100 µM
- TGI (SK-MEL-5 melanoma): > 100 µM
- TGI (SK-OV-3 ovarian): > 100 µM
- TGI (SN12C renal): > 100 µM
- TGI (SNB-19 CNS): > 100 µM
- TGI (SNB-75 CNS): > 100 µM
- TGI (SR leukemia): 47.9 µM
- TGI (SW-620 colon): > 100 µM
- TGI (T-47D breast): > 100 µM
- TGI (TK-10 renal): > 100 µM
- TGI (U251 CNS): > 100 µM
- TGI (UACC-257 melanoma): > 100 µM
- TGI (UACC-62 melanoma): 93.4 µM
- TGI (UO-31 renal): > 100 µM
